We go through 27 molecules from patent publication US9242970B2 (ACTELION PHARMACEUTICALS LTD., priority 2010, dated 2016).

The target in one assay is human orexin-1 receptor (Homo sapiens (Human), UniProt O43613). The assay can be described thus: In vitro assay: intracellular calcium measurements (FLIPR), antagonistic activity. It counts as cell-based. The note with it: CHO cells, 3 nM orexin-A, compound incubation 120 min; marked values are geometric means of n = 2-6; read-out: IC50 OX1. As to the method: (§1) In Vitro Assay: Intracellular Calcium Measurements:
(§2) Chinese hamster ovary (CHO) cells expressing the human orexin-1 receptor and the human orexin-2 receptor, respectively, are grown in culture medium (Ham F-12 with L-Glutamine) containing 300 µg/ml G418, 100 U/ml penicillin, 100 µg/ml streptomycin and 10% heat inactivated fetal calf serum (FCS). The cells are seeded at 20,000 cells/well into 384-well black clear bottom sterile plates (Greiner). The seeded plates are incubated overnight at 37° C. in 5% CO2.
(§3) Fluorescence is measured for each well at 1 second intervals, and the height of each fluorescence peak is compared to the height of the fluorescence peak induced by 3 nM orexin-A with vehicle in place of antagonist. […] Optimized conditions were achieved by adjustment of pipetting speed and cell splitting regime. The calculated IC50 values may fluctuate depending on the daily cellular assay performance. Fluctuations of this kind are known to those skilled in the art.
(Calcium flux is commonly read through the fluorescence of an indicator in the cells.)

A further assay has as its target human orexin-2 receptor (Homo sapiens (Human), UniProt O43614). Described as above. The class given is cell-based. As to the method:
as §1, §2, §3

Setting [1] is: CHO cells, 3 nM orexin-A, compound incubation 120 min, marked values are geometric means of n = 2-6, read-out: IC50 OX2.

Read-outs that look alike come from different tables or passages of the source.

Sequence of human orexin-1 receptor (O43613 whole entry): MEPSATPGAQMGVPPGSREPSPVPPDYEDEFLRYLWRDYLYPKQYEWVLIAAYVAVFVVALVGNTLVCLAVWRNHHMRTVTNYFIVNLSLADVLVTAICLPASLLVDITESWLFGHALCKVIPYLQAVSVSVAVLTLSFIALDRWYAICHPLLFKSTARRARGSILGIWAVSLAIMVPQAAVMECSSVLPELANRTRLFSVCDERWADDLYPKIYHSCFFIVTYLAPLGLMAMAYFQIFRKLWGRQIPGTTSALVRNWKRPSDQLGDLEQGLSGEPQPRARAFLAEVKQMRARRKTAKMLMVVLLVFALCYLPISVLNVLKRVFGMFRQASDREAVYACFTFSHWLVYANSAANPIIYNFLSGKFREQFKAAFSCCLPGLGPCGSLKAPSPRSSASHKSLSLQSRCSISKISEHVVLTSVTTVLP
Sequence of human orexin-2 receptor (O43614 whole entry): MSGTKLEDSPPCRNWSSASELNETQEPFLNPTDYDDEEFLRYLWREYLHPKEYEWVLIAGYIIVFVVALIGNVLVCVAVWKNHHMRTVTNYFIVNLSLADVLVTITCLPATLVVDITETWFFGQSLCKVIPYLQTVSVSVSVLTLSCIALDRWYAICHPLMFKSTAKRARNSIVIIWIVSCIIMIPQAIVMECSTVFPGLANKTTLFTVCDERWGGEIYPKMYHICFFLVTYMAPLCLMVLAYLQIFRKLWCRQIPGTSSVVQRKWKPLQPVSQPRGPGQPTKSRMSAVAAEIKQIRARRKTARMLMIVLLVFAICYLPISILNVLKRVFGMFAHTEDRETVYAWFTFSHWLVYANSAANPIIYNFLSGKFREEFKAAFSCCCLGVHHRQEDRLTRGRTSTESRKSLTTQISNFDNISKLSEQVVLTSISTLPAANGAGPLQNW

As usually defined, the IC50 is the concentration needed to halve the response being measured. Take `COc1ccc2ccccc2c1[C@@H]1C[C@@H](O)C(=O)N1Cc1ccc(OC(F)(F)F)cc1` (racemic) [Example 312, rac-(3R*,5S*)-3-hydroxy-5-(2-methoxynaphthalen-1-yl)-1-(4-(trifluoromethoxy)benzyl)pyrrolidin-2-one]: the values for the half-maximal inhibitory concentration (IC50) on human orexin-1 receptor and at human orexin-2 receptor (setting [1]) were 2200 nM and 826 nM, respectively.

Turning to `COc1c(F)ccc(F)c1[C@@H]1C[C@@H](O)C(=O)N1Cc1ccc(OC(F)(F)F)cc1` (racemic) [Example 313, rac-(3R*,5S*)-5-(3,6-difluoro-2-methoxyphenyl)-3-hydroxy-1-(4-(trifluoromethoxy)benzyl)pyrrolidin-2-one], the half-inhibitory concentration (IC50) on human orexin-1 receptor stood at 1460 nM; at human orexin-2 receptor (setting [1]), 1030 nM.

Regarding `COc1ccc(Cl)c(OC)c1[C@@H]1C[C@@H](O)C(=O)N1Cc1ccc(OC(F)(F)F)cc1` (racemic) [Example 314, rac-(3R*,5S*)-5-(3-chloro-2,6-dimethoxyphenyl)-3-hydroxy-1-(4-(trifluoromethoxy)benzyl)pyrrolidin-2-one], the values for the IC50 at human orexin-1 receptor and on human orexin-2 receptor (setting [1]) were 1100 nM and 920 nM, respectively.

On to `COc1ccc2ccccc2c1[C@@H]1C[C@H](Cl)C(=O)N1Cc1ccc(OC(F)(F)F)cc1` (racemic) [Example 316, rac-(3S*,5S*)-3-chloro-5-(2-methoxynaphthalen-1-yl)-1-(4-(trifluoromethoxy)benzyl)pyrrolidin-2-one], for which the half-maximal inhibitory concentration (IC50) on human orexin-1 receptor was found to be 329 nM; at human orexin-2 receptor (setting [1]), 1040 nM.

Take `COc1ccc(Cl)c(OC)c1[C@@H]1C[C@H](Cl)C(=O)N1Cc1ccc(OC(F)(F)F)cc1` (racemic) [Example 318, rac-(3S*,5S*)-3-chloro-5-(3-chloro-2,6-dimethoxyphenyl)-1-(4-(trifluoromethoxy)benzyl)pyrrolidin-2-one]: the results for the 50% inhibitory concentration (IC50) on human orexin-1 receptor and on human orexin-2 receptor (setting [1]) were 167 nM and 444 nM, respectively.

`COc1ccc(Cl)c(OC)c1[C@@H]1C[C@H](F)C(=O)N1Cc1ccc(OC(F)(F)F)cc1` (racemic) [Example 319, rac-(3S*,5S*)-5-(3-chloro-2,6-dimethoxyphenyl)-3-fluoro-1-(4-(trifluoromethoxy)benzyl)pyrrolidin-2-one]: the IC50 on human orexin-1 receptor worked out at 971 nM; on human orexin-2 receptor (setting [1]) it was 1020 nM.

As to `COc1cccc(F)c1[C@@H]1C[C@@H](Cl)C(=O)N1Cc1ccc(OC(F)(F)F)cc1` (racemic) [Example 324, rac-(3R*,5S*)-3-chloro-5-(2-fluoro-6-methoxyphenyl)-1-(4-(trifluoromethoxy)benzyl)pyrrolidin-2-one], the results for the IC50 at human orexin-1 receptor and at human orexin-2 receptor (setting [1]) were 968 nM and 1210 nM, respectively.

As to `COc1cccc(C)c1[C@@H]1C[C@H](Cl)C(=O)N1Cc1ccc(OC(F)(F)F)cc1` (racemic) [Example 326, rac-(3S*,5S*)-3-chloro-5-(2-methoxy-6-methylphenyl)-1-(4-(trifluoromethoxy)benzyl)pyrrolidin-2-one], the half-maximal inhibitory concentration (IC50) on human orexin-1 receptor was 1520 nM; at human orexin-2 receptor (setting [1]), 126 nM.

In the case of `CCOc1c(F)cccc1[C@@H]1C[C@H](F)C(=O)N1Cc1ccc(OC(F)(F)F)cc1` (racemic) [Example 331, rac-(3S*,5S*)-5-(2-ethoxy-3-fluorophenyl)-3-fluoro-1-(4-(trifluoromethoxy)benzyl)pyrrolidin-2-one], the IC50 at human orexin-1 receptor is 1150 nM; on human orexin-2 receptor (setting [1]) it was 434 nM.

Regarding `COc1ccc(F)c(OC)c1[C@@H]1C[C@H](F)C(=O)N1Cc1ccc(OC(F)(F)F)cc1` (racemic) [Example 332, rac-(3S*,5S*)-3-fluoro-5-(3-fluoro-2,6-dimethoxyphenyl)-1-(4-(trifluoromethoxy)benzyl)pyrrolidin-2-one], the values for the IC50 at human orexin-1 receptor and at human orexin-2 receptor (setting [1]) were 1020 nM and 296 nM, respectively.

In the case of `CCOc1cccc(F)c1[C@@H]1C[C@@H](Cl)C(=O)N1Cc1ccc(OC(F)(F)F)cc1` (racemic) [Example 333, rac-(3R*,5S*)-3-chloro-5-(2-ethoxy-6-fluorophenyl)-1-(4-(trifluoromethoxy)benzyl)pyrrolidin-2-one], the half-maximal inhibitory concentration (IC50) at human orexin-1 receptor came out at 965 nM; on human orexin-2 receptor (setting [1]), 184 nM.

Consider `CCOc1cccc(F)c1[C@@H]1C[C@@H](O)C(=O)N1Cc1ccc(OC(F)(F)F)cc1` (racemic) [Example 334, rac-(3R*,5S*)-5-(2-ethoxy-6-fluorophenyl)-3-hydroxy-1-(4-(trifluoromethoxy)benzyl)pyrrolidin-2-one], for which the IC50 at human orexin-1 receptor stood at 2120 nM; on human orexin-2 receptor (setting [1]), 33 nM.

`CCOc1cc(F)ccc1[C@@H]1C[C@@H](O)C(=O)N1Cc1ccc(OC(F)(F)F)cc1` (racemic) [Example 335, rac-(3R*,5S*)-5-(2-ethoxy-4-fluorophenyl)-3-hydroxy-1-(4-(trifluoromethoxy)benzyl)pyrrolidin-2-one]: the IC50 at human orexin-1 receptor was 5350 nM; on human orexin-2 receptor (setting [1]) it was 1360 nM.

As for `CCOc1ccc(F)c(F)c1[C@@H]1C[C@H](F)C(=O)N1Cc1ccc(OC(F)(F)F)cc1` (racemic) [Example 340, rac-(3S*,5S*)-5-(6-ethoxy-2,3-difluorophenyl)-3-fluoro-1-(4-(trifluoromethoxy)benzyl)pyrrolidin-2-one], the IC50 at human orexin-1 receptor came out at 981 nM; at human orexin-2 receptor (setting [1]) it was 17 nM.

In the case of `CCOc1cc(F)ccc1[C@@H]1C[C@@H](Cl)C(=O)N1Cc1ccc(OC(F)(F)F)cc1` (racemic) [Example 341], the concentration for half-maximal inhibition (IC50) on human orexin-1 receptor is 3340 nM; on human orexin-2 receptor (setting [1]) it was 1630 nM.

Consider `CCOc1cccc(F)c1[C@@H]1C[C@H](F)C(=O)N1Cc1ccc(OC(F)(F)F)cc1` (racemic) [Example 342, rac-(3S*,5S*)-5-(2-ethoxy-6-fluorophenyl)-3-fluoro-1-(4-(trifluoromethoxy)benzyl)pyrrolidin-2-one], for which the concentration for half-maximal inhibition (IC50) was found to be 1110 nM on human orexin-1 receptor and 8 nM at human orexin-2 receptor (setting [1]).

In the case of `CCOc1cccc(F)c1[C@@H]1C[C@H](Cl)C(=O)N1Cc1ccc(OC(F)(F)F)cc1` (racemic) [Example 343, rac-(3S*,5S*)-3-chloro-5-(2-ethoxy-6-fluorophenyl)-1-(4-(trifluoromethoxy)benzyl)pyrrolidin-2-one], the IC50 was 603 nM on human orexin-1 receptor and 15 nM at human orexin-2 receptor (setting [1]).

In the case of `CCOc1cc(F)ccc1[C@@H]1C[C@H](Cl)C(=O)N1Cc1ccc(OC(F)(F)F)cc1` (racemic) [Example 345], the values for the IC50 at human orexin-1 receptor and on human orexin-2 receptor were 745 nM and 462 nM, respectively.

Take `COc1cccc(OC)c1[C@@H]1C[C@@H](O)C(=O)N1Cc1ccc2oc3ccccc3c2c1` (racemic) [Example 357, rac-(3R*,5S*)-1-(dibenzo[b,d]furan-2-ylmethyl)-5-(2,6-dimethoxyphenyl)-3-hydroxypyrrolidin-2-one]: the results for the half-maximal inhibitory concentration (IC50) at human orexin-1 receptor and at human orexin-2 receptor (setting [1]) were 20 nM and 4 nM, respectively.

`COc1cccc(OC)c1[C@@H]1C[C@H](Cl)C(=O)N1Cc1ccc2oc3ccccc3c2c1` (racemic) [Example 369, rac-(3S*,5S*)-3-chloro-1-(dibenzo[b,d]furan-2-ylmethyl)-5-(2,6-dimethoxyphenyl)pyrrolidin-2-one]: the IC50 on human orexin-1 receptor stood at 2 nM; at human orexin-2 receptor (setting [1]), 5 nM.

On to `CCOc1cccc(F)c1[C@@H]1C[C@@H](O)C(=O)N1Cc1ccc(OC(F)(F)F)c(F)c1` (racemic) [Example 428, rac-(3R*,5S*)-5-(2-ethoxy-6-fluorophenyl)-1-(3-fluoro-4-(trifluoromethoxy)benzyl)-3-hydroxypyrrolidin-2-one], for which the concentration for half-maximal inhibition (IC50) at human orexin-1 receptor turned out to be 1710 nM; at human orexin-2 receptor (setting [1]) it was 53 nM.

As for `CCOc1cc(F)cc(F)c1[C@@H]1C[C@@H](O)C(=O)N1Cc1ccc(OC(F)(F)F)cc1` (racemic) [Example 431, rac-(3R*,5S*)-5-(2-ethoxy-4,6-difluorophenyl)-3-hydroxy-1-(4-(trifluoromethoxy)benzyl)pyrrolidin-2-one], the half-inhibitory concentration (IC50) on human orexin-1 receptor came out at 1490 nM; at human orexin-2 receptor (setting [1]), 255 nM.

In the case of `O=C1[C@H](O)C[C@@H](c2c(F)cccc2OCCF)N1Cc1ccc(OC(F)(F)F)cc1` (racemic) [Example 432, rac-(3R*,5S*)-5-(2-fluoro-6-(2-fluoroethoxy)phenyl)-3-hydroxy-1-(4-(trifluoromethoxy)benzyl)pyrrolidin-2-one], the 50% inhibitory concentration (IC50) at human orexin-1 receptor is 3960 nM; on human orexin-2 receptor (setting [1]), 57 nM.

In the case of `CCOc1cccc(F)c1[C@@H]1C[C@@H](O)C(=O)N1Cc1ccccc1OC(F)(F)F` (racemic) [Example 433, rac-(3R*,5S*)-5-(2-ethoxy-6-fluorophenyl)-3-hydroxy-1-(2-(trifluoromethoxy)benzyl)pyrrolidin-2-one], the IC50 at human orexin-1 receptor amounted to 1710 nM; at human orexin-2 receptor (setting [1]), 3920 nM.

As to `CCOc1cccc(F)c1[C@@H]1C[C@H](F)C(=O)N1Cc1ccc(OC(F)(F)F)c(F)c1` (racemic) [Example 434, rac-(3S*,5S*)-5-(2-ethoxy-6-fluorophenyl)-3-fluoro-1-(3-fluoro-4-(trifluoromethoxy)benzyl)pyrrolidin-2-one], the IC50 on human orexin-1 receptor was 655 nM; at human orexin-2 receptor (setting [1]), 21 nM.

In the case of `CCOc1cccc(F)c1[C@@H]1C[C@H](Cl)C(=O)N1Cc1ccc(OC(F)(F)F)c(F)c1` (racemic) [Example 435, rac-(3S*,5S*)-3-chloro-5-(2-ethoxy-6-fluorophenyl)-1-(3-fluoro-4-(trifluoromethoxy)benzyl)pyrrolidin-2-one], the IC50 worked out at 660 nM at human orexin-1 receptor and 30 nM at human orexin-2 receptor (setting [1]).

Consider `CCOc1cccc(Cl)c1[C@@H]1C[C@H](F)C(=O)N1Cc1ccc(OC(F)(F)F)cc1` (racemic) [Example 436, rac-(3S*,5S*)-5-(2-chloro-6-ethoxyphenyl)-3-fuoro-1-(4-(trifluoromethoxy)benzyl)pyrrolidin-2-one], for which the IC50 at human orexin-1 receptor was 965 nM; on human orexin-2 receptor (setting [1]), 31 nM.
